Patent publication US12544356B2, “Combination of a chromene compound and a second active agent” (EUCLISES PHARMACEUTICALS, INC., priority 2016, dated 2026)

Key:
[1] = Plasma concentration of Compound A01 and erlotinib (Example 1); type: in vivo, CB17SCID male mice; details: for concentration at 2 h / concentration at 6 h: male, CB17SCID, mouse, plasma; for concentration at 2 h: 2 hours post dosing; for concentration at 6 h: 6 hours post dosing
Protocol: (§1) 48 CB17SCID male mice were implanted with 2.5×10^6 HT29 cells. Growth of the tumor was calculated for each animal using a caliper and the equation: V=π×ab^2/6.
(§2) Mouse weight and tumor volume measurements were taken on days 0, 3, 6, 9, 12, 15, 18, 21, and 22 following randomization.

[2] = Intratumoral concentration of Compound A01 and erlotinib (Example 1); type: in vivo, CB17SCID male mice; details: for Intratumoral concentration of Compound A01 (mean ± SD): HT-29 tumor, day 24
Protocol: as §1, §2

PGE2 = assay: Intratumoral concentration of PGE2 in HT-29 tumors (Example 1); type: in vivo, CB17SCID male mice; details: HT-29 tumor, day 24
Protocol: as §1, §2

[3] = tested on: CT26 murine colon carcinoma cells; assay: CT26 tumor growth, Compound A01 with anti-mPD-L1 (Example 4); type: in vivo, Female Envigo BALB/c (BALB/cAnNHsd) mice; details: for tumor growth (tumor volume): all doses 10 mg/kg, A01 oral daily, antibodies i.p.
Protocol: CT26 murine colon carcinoma cells were prepared as in Example 2. Female Envigo BALB/c (BALB/cAnNHsd) were inoculated with 5×10^5 CT26 cells suspended in PBS (200 μL) subcutaneously high in the axilla (just under the fore limb). […] The antibodies were administered via i.p. injection on days 3, 6, 9, 12, and 16 following inoculation. Compound A01 was given per oral daily. The mice were euthanized two hours following final dose on Day 16 and samples were prepared for testing.

[4] = tested on: CT26.WT murine colon carcinomas; assay: CT26 tumor volume, Compound A01 vs celecoxib (Example 6); type: in vivo, Female Harlan Balb/c mice (BALB/cAnNHsd)
Protocol: (§3) CT26 murine colon carcinoma cells were prepared as in Example 2. Female Harlan Balb/c mice (BALB/cAnNHsd) were inoculated with 5×10^5 CT26 cells suspended in PBS (200 μL) subcutaneously high in the axilla (just under the fore limb). All mice were sorted into study groups based on caliper measurement estimation of tumor burden on Day 8 when the mean tumor burden for all animals was approximately 79 mm^3 (range of group means, 75-83 mm^3).

prostaglandin E2 (PGE2) = assay: CT26 tumoral PGE-2 (Example 6); type: in vivo, Female Harlan Balb/c mice (BALB/cAnNHsd)
Protocol: as §3

For `[2H]C([2H])([2H])c1cc(Br)cc2c1O[C@H](C(F)(F)F)C(C(=O)O)=C2` [Compound A01, (S)-6-bromo-8-trideuteromethyl-2-(trifluoromethyl)-2H-chromene-3-carboxylic acid], the “effect of oral dosing of erlotinib on plasma concentration of Compound A01” value ([1]; 2 and 6 hours post dosing) was “influenced”, the concentration at 2 h ([1]; A01 1 mg/kg oral) was 3610 ± 1350 ng/mL and the concentration at 2 h ([1]; A01 10 mg/kg oral) was 28400 ± 6020 ng/mL. The concentration at 6 h ([1]; A01 1 mg/kg oral) was 2250 ± 529 ng/mL, the concentration at 6 h ([1]; A01 10 mg/kg oral) was 19100 ± 5170 ng/mL and the “Intratumoral concentration of Compound A01 (mean ± SD)” value ([2]; A01 1 mg/kg) was 1478.5 ± 652.1 µg/g. The “Intratumoral concentration of Compound A01 (mean ± SD)” value ([2]; A01 10 mg/kg) was 9720 ± 2758.7 µg/g, the “increase in intratumor level of Compound A01 on addition of erlotinib” value ([2]; with erlotinib vs Compound A01 in the absence of erlotinib) was 1.5 fold and the “Intratumoral concentration of PGE2 (mean ± SD)” value (PGE2; A01 1 mg/kg) was 14.01 ± 30.3 µg/g. The “Intratumoral concentration of PGE2 (mean ± SD)” value (PGE2; A01 10 mg/kg) was 0 µg/g, the “tumor growth compared to vehicle and isotype controls” value ([3]; CT26, doses 10 mg/kg) was “slowed” and the “tumor growth (tumor volume)” value ([3]; Day 3) was 0 mm^3. The “tumor growth (tumor volume)” value ([3]; Day 4) was 0 mm^3, the “tumor growth (tumor volume)” value ([3]; Day 6) was 8 mm^3 and the “tumor growth (tumor volume)” value ([3]; Day 9) was 97 mm^3. The “tumor growth (tumor volume)” value ([3]; Day 11) was 242 mm^3, the “tumor growth (tumor volume)” value ([3]; Day 13) was 442 mm^3 and the “tumor growth (tumor volume)” value ([3]; Day 16) was 759 mm^3. The “CT26 Tumor Volume” value ([4]; Day 8, 0.3 mg/kg) was 80 ± 6 mm^3, the “CT26 Tumor Volume” value ([4]; Day 8, 1 mg/kg) was 78 ± 5 mm^3 and the “CT26 Tumor Volume” value ([4]; Day 8, 3 mg/kg) was 83 ± 3 mm^3. The “CT26 Tumor Volume” value ([4]; Day 8, 10 mg/kg) was 79 ± 6 mm^3, the “CT26 Tumor Volume” value ([4]; Day 8, 30 mg/kg) was 78 ± 5 mm^3 and the “CT26 Tumor Volume” value ([4]; Day 10, 0.3 mg/kg) was 139 ± 15 mm^3. The “CT26 Tumor Volume” value ([4]; Day 10, 1 mg/kg) was 118 ± 17 mm^3, the “CT26 Tumor Volume” value ([4]; Day 10, 3 mg/kg) was 127 ± 11 mm^3 and the “CT26 Tumor Volume” value ([4]; Day 10, 10 mg/kg) was 121 ± 14 mm^3. The “CT26 Tumor Volume” value ([4]; Day 10, 30 mg/kg) was 119 ± 8 mm^3, the “CT26 Tumor Volume” value ([4]; Day 13, 0.3 mg/kg) was 460 ± 73 mm^3 and the “CT26 Tumor Volume” value ([4]; Day 13, 1 mg/kg) was 286 ± 48 mm^3. For the same molecule, the “CT26 Tumor Volume” value ([4]; Day 13, 3 mg/kg) was 314 ± 49 mm^3, the “CT26 Tumor Volume” value ([4]; Day 13, 10 mg/kg) was 257 ± 35 mm^3 and the “CT26 Tumor Volume” value ([4]; Day 13, 30 mg/kg) was 309 ± 34 mm^3. For the same molecule, the “CT26 Tumor Volume” value ([4]; Day 15, 0.3 mg/kg) was 694 ± 116 mm^3, the “CT26 Tumor Volume” value ([4]; Day 15, 1 mg/kg) was 433 ± 67 mm^3 and the “CT26 Tumor Volume” value ([4]; Day 15, 3 mg/kg) was 560 ± 79 mm^3. For the same molecule, the “CT26 Tumor Volume” value ([4]; Day 15, 10 mg/kg) was 590 ± 109 mm^3, the “CT26 Tumor Volume” value ([4]; Day 15, 30 mg/kg) was 563 ± 89 mm^3 and the “CT26 Tumor Volume” value ([4]; Day 17, 0.3 mg/kg) was 1123 ± 198 mm^3. For the same molecule, the “CT26 Tumor Volume” value ([4]; Day 17, 1 mg/kg) was 689 ± 114 mm^3, the “CT26 Tumor Volume” value ([4]; Day 17, 3 mg/kg) was 834 ± 114 mm^3 and the “CT26 Tumor Volume” value ([4]; Day 17, 10 mg/kg) was 758 ± 130 mm^3. For the same molecule, the “CT26 Tumor Volume” value ([4]; Day 17, 30 mg/kg) was 897 ± 101 mm^3, the “Mean PGE-2 Concentration (CT26 tumoral)” value (prostaglandin E2 (PGE2); 0.3 mg/kg (Group 6)) was 670 ng/g and the “Mean PGE-2 Concentration (CT26 tumoral)” value (prostaglandin E2 (PGE2); 1 mg/kg (Group 5)) was 278 ng/g. For the same molecule, the “Mean PGE-2 Concentration (CT26 tumoral)” value (prostaglandin E2 (PGE2); 30 mg/kg (Group 2)) was 150 ng/g.
